Patent publication US20260008758A1, “LINEAR DIPEPTIDYL PEPTIDASE 1 INHIBITORS AND USES THEREOF” (Insmed Incorporated, priority 2024, published 2026)

How the values were obtained:
[1] = target: T1, human DPP1 enzyme (Homo sapiens (Human), UniProt P53634); test: Human DPP1 enzyme IC50 assay; type: biochemical; settings: recombinant human DPP1, H-Gly-Arg-AMC substrate 400 μM
Method: Test articles were applied to activated human DPP1 enzyme in Assay Buffer (25 mM MES pH 6.0, 50 mM NaCl, 5 mM DTT) in a total reaction volume of 125 μL. 25 μL of compound in Assay Buffer plus 5% DMSO was first added to 50 μL of activated human DPP1 enzyme at a concentration of 1 ng/μL and allowed to pre-incubate for 10 minutes at 37° C. after which 50 μL of 1000 μM H-Gly-Arg-AMC substrate (Bachem; St. Torrance, CA) was added, giving final substrate concentration of 400 μM and a final DMSO concentration of 1%. Substrate cleavage was measured for 90 minutes at 37° C., with fluorescence at Excitation/Emission 350/450 nm measured every 5 minutes. DPP1 concentration was interpolated based on its activity relative to a standard curve of activated human recombinant DPP1 enzyme. IC50 values for each compound were calculated via the XLFit (IDBS Version 5.3.1.3) Add-On to Microsoft Excel using the four parameter fit equation y={A+[(B-A)]/[1+((C/x)^D)]}, which appears as equation number 205 (4 Parameter Logistic Model or Sigmoidal Dose-Response Model) in XLFit. Default constraints were used for each Parameter.

[2] = target: T1, human DPP1 enzyme; test: Human DPP1 enzyme single-point percent inhibition testing (HL-60 lysate, H-Gly-Arg-AMC substrate); type: biochemical; settings: read-out: human DPP1 enzyme % inhibition @ 10 nM, 10 nM compound, 400 μM H-Gly-Arg-AMC, 10 min pre-incubation at 37° C.
Method: A crude lysate of HL-60 cells (ATCC; Manassas, VA) was used as a source of human DPP1 enzyme in the assay. Lysate was prepared in 1% Triton X-100 in PBS at a concentration of 20,000 live cells per […] of lysis buffer and was centrifuged at 16,000 rcf for 10 minutes at 4° C., after which supernatant was collected and flash-frozen in liquid nitrogen. Test articles were applied to human DPP1 enzyme in Assay Buffer (25 mM MES pH 6.0, 50 mM NaCl, 5 mM DTT) in a total reaction volume of 125 μL. 25 μL of compound diluted to 50 nM in Assay Buffer plus 5% DMSO was first added to 50 μL of HL-60 lysate diluted to contain a DPP1 enzyme concentration of roughly 1 ng/μL and allowed to pre-incubate for 10 minutes at 37° C. after which 50 μL of 1000 μM H-Gly-Arg-AMC substrate (Bachem; St. Torrance, CA) was added, giving final compound concentration of 10 nM, a final substrate concentration of 400 μM and a final DMSO concentration of 1%. Substrate cleavage was measured for 90 minutes at 37° C., with fluorescence at Excitation/Emission 350/450 nm measured every 5 minutes. DPP1 concentration was interpolated based on its activity relative to a standard curve of activated human recombinant DPP1 enzyme. Percent inhibition at 10 nM was calculated for each test article based on remaining DPP1 activity compared to enzyme activity in wells that received only vehicle control.

[3] = target: DPP1 in HL-60 cells (Homo sapiens (Human), UniProt P53634); test: DPP1 cell single-point percent inhibition testing (HL-60 cells, H-Gly-Phe-AFC substrate); type: cell-based; settings: read-out: DPP1 cell % inhibition @ 5 nM, 5 nM compound, 100 μM H-Gly-Phe-AFC, 60 min pre-incubation at 37° C.
Chain of DPP1 in HL-60 cells (P53634 25-134): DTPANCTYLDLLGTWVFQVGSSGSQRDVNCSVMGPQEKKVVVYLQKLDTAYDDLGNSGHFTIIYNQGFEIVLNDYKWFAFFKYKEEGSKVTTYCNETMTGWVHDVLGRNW
Chain of DPP1 in HL-60 cells (P53634 231-394): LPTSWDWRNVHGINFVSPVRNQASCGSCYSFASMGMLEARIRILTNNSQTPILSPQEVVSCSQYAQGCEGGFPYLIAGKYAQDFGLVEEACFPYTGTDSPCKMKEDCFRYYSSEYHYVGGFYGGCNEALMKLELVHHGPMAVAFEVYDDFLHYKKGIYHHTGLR
Chain of DPP1 in HL-60 cells (P53634 395-463): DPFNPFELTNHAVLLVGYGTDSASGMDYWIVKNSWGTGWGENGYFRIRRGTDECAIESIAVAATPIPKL
Method: HL-60 cells (ATCC; Manassas, VA) were maintained in RPMI-1640 supplemented with 20% heat-inactivated FBS and 1× Antibiotic Antimycotic (Cytiva; Marlborough, MA). Media was changed every three to four days and cells were not allowed to exceed 1×10^6 cells per mL. Prior to assay, cells were collected by centrifugation at 500 rcf for 3 minutes, resuspended in RPMI (with no additional supplements) and counted. Cells were diluted in RPMI to a concentration of 5×10^5 live cells per mL and transferred to black 96-well plates for assay, 60 μL per well. Test articles were diluted to 25 nM in RPMI plus 0.5% DMSO, and 20 μL was added to each assay well. Compound was allowed to pre-incubate with cells with gentle shaking at 100 rpm for 60 minutes at 37° C. in a cell culture incubator maintained at 5% CO2, after which 20 μL of 500 μM H-Gly-Phe-AFC cell-permeable substrate (MP Biomedicals; Solon, OH) in RPMI was added to each well, giving final compound concentration of 5 nM, a final substrate concentration of 100 μM and a final DMSO concentration of 0.1%. Plates were returned to the incubator with shaking at 100 rpm for 30 minutes, after which fluorescence was measured at Excitation/Emission 400/505 nm. Percent Inhibition was calculated from RFU values by first subtracting background values (wells in which RPMI was substituted for cells) from each well, and then subtracting background-subtracted RFU derived from wells that received a final concentration of 10 μM brensocatib. This value represents the non-specific substrate cleavage from the HL-60 cells, and the remaining RFU should theoretically be solely the contribution of DPP1 enzyme activity. The final percent inhibition value was calculated for each test article based on remaining RFU compared to RFU from wells that received only vehicle control.

T1 sequence (P53634 25-134): as the sequence (P53634 25-134) above
T1 sequence (P53634 231-394): as the sequence (P53634 231-394) above
T1 sequence (P53634 395-463): as the sequence (P53634 395-463) above

## CN1CCN[C@@H](CC(=O)N[C@H](C#N)Cc2ccc(-c3ccc4oc(=O)n(C)c4c3)cc2)C1 [Compound 253, N-[(1S)-1-cyano-2-[4-(3-methyl-2-oxo-1,3-benzoxazol-5-yl)phenyl]ethyl]-2-(4-methylpiperazin-2-yl)acetamide]
[1]
  IC50: ≥ 15 nM

## CCN1C(=O)Cc2ccc(-c3ccc(C[C@@H](C#N)NC(=O)[C@](C)(N)C4CCCC4)cc3)cc21 [Compound 259B, (2R)-2-amino-N-[(1S)-1-cyano-2-[4-(1-ethyl-2-oxo-3H-indol-6-yl)phenyl]ethyl]-2-cyclopentylpropanamide]
[1]
  IC50: ≥ 15 nM

## Cc1cn2cc(-c3ccc(C[C@@H](C#N)NC(=O)[C@](C)(N)C4CCC4)c(F)c3)cc2c(C)n1 [Compound 272A, (R)-2-amino-N—((S)-1-cyano-2-(4-(1,3-dimethylpyrrolo[1,2-a]pyrazin-7-yl)-2-fluorophenyl)ethyl)-2-cyclobutylpropanamide]
[1]
  IC50: ≥ 15 nM

## CN(C)C[C@H](O)C(=O)N[C@@H](C#N)Cc1cc2c(cc1F)-c1ccc(C#N)cc1CO2 [Compound 277B, (2S)—N-[(1R)-1-cyano-2-{8-cyano-2-fluoro-6H-benzo[c]chromen-3-yl}ethyl]-3-(dimethylamino)-2-hydroxypropanamide]
[1]
  IC50: ≥ 15 nM

## CO[C@@H](CN(C)C)C(=O)NC(C#N)Cc1cc2c(cc1F)-c1cc(C3COC3)c(F)cc1CO2 (stereo partly shown) [Compound 295]
[2]
  inhibition at 0.01 µM: 40 to 66.7%
[3]
  inhibition at 0.005 µM: ≤ 76.5%

## CO[C@@H](CN(C)C)C(=O)N[C@H](C#N)Cc1cc2c(cc1F)-c1ccc(C#N)cc1CO2 [Compound 296]
[2]
  inhibition at 0.01 µM: ≤ 40%
[3]
  inhibition at 0.005 µM: ≤ 76.5%

## CO[C@@H](CN(C)C)C(=O)NC(C#N)Cc1cc2c(cc1F)-c1cc3c(cc1CO2)oc(=O)n3C (stereo partly shown) [Compound 297]
[2]
  inhibition at 0.01 µM: ≤ 40%
[3]
  inhibition at 0.005 µM: ≤ 76.5%

## CO[C@@H](CN(C)C)C(=O)NC(C#N)Cc1cc2c(cc1F)-c1cc(C#N)ccc1CO2 (stereo partly shown) [Compound 298]
[2]
  inhibition at 0.01 µM: ≤ 40%
[3]
  inhibition at 0.005 µM: ≤ 76.5%

## CO[C@@H](CN(C)C)C(=O)NC(C#N)Cc1cc2c(cc1F)-c1ccc3oc(=O)n(C)c3c1CO2 (stereo partly shown) [Compound 299]
[2]
  inhibition at 0.01 µM: ≤ 40%
[3]
  inhibition at 0.005 µM: ≤ 76.5%

## CO[C@@H](CN(C)C)C(=O)N[C@H](C#N)Cc1ccc(-c2ccc3c(c2)C2(CC3)CCN(C)CC2)cc1 [Compound 300]
[2]
  inhibition at 0.01 µM: 40 to 66.7%
[3]
  inhibition at 0.005 µM: ≤ 76.5%

## CO[C@@H](CN(C)C)C(=O)N[C@H](C#N)Cc1ccc(-c2ccc3c(c2)C2(CCCN(C)C2)C(=O)N3C)cc1 (stereo partly shown) [Compound 301]
[2]
  inhibition at 0.01 µM: ≤ 40%
[3]
  inhibition at 0.005 µM: 76.5 to 93.9%

## CO[C@@H](CN(C)C)C(=O)N[C@H](C#N)Cc1ccc(-c2ccc3oc(=O)n(CCN(C)C)c3c2)cc1 [Compound 302]
[2]
  inhibition at 0.01 µM: 40 to 66.7%
[3]
  inhibition at 0.005 µM: ≤ 76.5%

## CO[C@@H](CN(C)C)C(=O)N[C@H](C#N)Cc1ccc(-c2cc3c(C)nc(C)cn3c2)cc1 [Compound 303]
[2]
  inhibition at 0.01 µM: ≤ 40%
[3]
  inhibition at 0.005 µM: ≤ 76.5%

## CO[C@@H](CN(C)C)C(=O)N[C@H](C#N)Cc1ccc(-c2ccc3c(c2)C2(CN(C)C2)OC3=O)cc1 [Compound 304]
[2]
  inhibition at 0.01 µM: ≤ 40%
[3]
  inhibition at 0.005 µM: ≤ 76.5%

## CCN1C(=O)Cc2ccc(-c3ccc(C[C@@H](C#N)NC(=O)[C@H](CN(C)C)OC)cc3)cc21 [Compound 305]
[2]
  inhibition at 0.01 µM: ≤ 40%
[3]
  inhibition at 0.005 µM: ≤ 76.5%

## CO[C@@H](CN(C)C)C(=O)N[C@H](C#N)Cc1ccc(-c2ccc3c(c2)C2(CCN(C)C2)OC3=O)cc1 (stereo partly shown) [Compound 306]
[2]
  inhibition at 0.01 µM: ≤ 40%
[3]
  inhibition at 0.005 µM: ≤ 76.5%

## CO[C@@H](CN(C)C)C(=O)N[C@H](C#N)Cc1ccc(-c2ccc3cnn(C4CCN(C)CC4)c3c2)cc1 [Compound 307]
[2]
  inhibition at 0.01 µM: 40 to 66.7%
[3]
  inhibition at 0.005 µM: ≤ 76.5%

## CO[C@@H](CN(C)C)C(=O)N[C@H](C#N)Cc1ccc(-c2ccc3c(c2)C2(CCN(C4COC4)CC2)OC3)cc1 [Compound 308]
[2]
  inhibition at 0.01 µM: ≤ 40%
[3]
  inhibition at 0.005 µM: ≤ 76.5%

## CO[C@@H](CN(C)C)C(=O)N[C@H](C#N)Cc1ccc(-c2ccc3oc(=O)n(CCN4CCOCC4)c3c2)cc1 [Compound 309]
[2]
  inhibition at 0.01 µM: ≤ 40%
[3]
  inhibition at 0.005 µM: ≤ 76.5%

## CO[C@@H](CN(C)C)C(=O)N[C@H](C#N)Cc1ccc(-c2ccc(CN3CCN(C)CC3)cc2)cc1 [Compound 310]
[2]
  inhibition at 0.01 µM: ≤ 40%
[3]
  inhibition at 0.005 µM: 76.5 to 93.9%

## CO[C@@H](CN(C)C)C(=O)N[C@H](C#N)Cc1ccc(-c2ccc3oc(=O)n(C)c3c2)cc1 [Compound 311]
[2]
  inhibition at 0.01 µM: ≤ 40%
[3]
  inhibition at 0.005 µM: 76.5 to 93.9%

## CO[C@@H](CN(C)C)C(=O)N[C@H](C#N)Cc1ccc(-c2ccc3c(n2)CCCN3)cc1 [Compound 312]
[2]
  inhibition at 0.01 µM: ≤ 40%
[3]
  inhibition at 0.005 µM: ≤ 76.5%

## CO[C@@H](CN(C)C)C(=O)N[C@H](C#N)Cc1ccc(-c2ccc3c(c2)C2(CC3)CCN(C)CC2)cc1F [Compound 313]
[2]
  inhibition at 0.01 µM: ≥ 66.7%
[3]
  inhibition at 0.005 µM: ≤ 76.5%

## CO[C@@H](CN(C)C)C(=O)N[C@H](C#N)Cc1ccc(-c2ccc3c(c2)C2(CCCN(C)C2)C(=O)N3C)cc1F (stereo partly shown) [Compound 314]
[2]
  inhibition at 0.01 µM: 40 to 66.7%
[3]
  inhibition at 0.005 µM: ≥ 93.9%

## CO[C@@H](CN(C)C)C(=O)N[C@H](C#N)Cc1ccc(-c2ccc3oc(=O)n(CCN(C)C)c3c2)cc1F [Compound 315]
[2]
  inhibition at 0.01 µM: ≥ 66.7%
[3]
  inhibition at 0.005 µM: ≤ 76.5%

## CO[C@@H](CN(C)C)C(=O)N[C@H](C#N)Cc1ccc(-c2cc3c(C)nc(C)cn3c2)cc1F [Compound 316]
[2]
  inhibition at 0.01 µM: ≤ 40%
[3]
  inhibition at 0.005 µM: ≤ 76.5%

## CO[C@@H](CN(C)C)C(=O)N[C@H](C#N)Cc1ccc(-c2ccc3c(c2)C2(CN(C)C2)OC3=O)cc1F [Compound 317]
[2]
  inhibition at 0.01 µM: 40 to 66.7%
[3]
  inhibition at 0.005 µM: ≤ 76.5%

## CCN1C(=O)Cc2ccc(-c3ccc(C[C@@H](C#N)NC(=O)[C@H](CN(C)C)OC)c(F)c3)cc21 [Compound 318]
[2]
  inhibition at 0.01 µM: 40 to 66.7%
[3]
  inhibition at 0.005 µM: 76.5 to 93.9%

## CO[C@@H](CN(C)C)C(=O)N[C@H](C#N)Cc1ccc(-c2ccc3c(c2)C2(CCN(C)C2)OC3=O)cc1F (stereo partly shown) [Compound 319]
[2]
  inhibition at 0.01 µM: ≥ 66.7%
[3]
  inhibition at 0.005 µM: ≤ 76.5%

## CO[C@@H](CN(C)C)C(=O)N[C@H](C#N)Cc1ccc(-c2ccc3cnn(C4CCN(C)CC4)c3c2)cc1F [Compound 320]
[2]
  inhibition at 0.01 µM: ≥ 66.7%
[3]
  inhibition at 0.005 µM: ≤ 76.5%

## CO[C@@H](CN(C)C)C(=O)N[C@H](C#N)Cc1ccc(-c2ccc3c(c2)C2(CCN(C4COC4)CC2)OC3)cc1F [Compound 321]
[2]
  inhibition at 0.01 µM: 40 to 66.7%
[3]
  inhibition at 0.005 µM: ≤ 76.5%

## CO[C@@H](CN(C)C)C(=O)N[C@H](C#N)Cc1ccc(-c2ccc3oc(=O)n(CCN4CCOCC4)c3c2)cc1F [Compound 322]
[2]
  inhibition at 0.01 µM: 40 to 66.7%
[3]
  inhibition at 0.005 µM: ≤ 76.5%

## CN(C)C[C@H](O)C(=O)NC(C#N)Cc1cc2c(cc1F)-c1cc(C#N)ccc1CO2 (stereo partly shown) [Compound 340]
[2]
  inhibition at 0.01 µM: ≤ 40%
